Reference: patent US8415296B2, “Oxyntomodulin peptide analogue” (Eli Lilly and Company, priority 2009, dated 2013)
Marks after values point to notes of the source that are not given here.

How the values were obtained:
Assay type in all cases: in vivo
[1] = Intraperitoneal glucose tolerance test in ob/ob mice; conditions: IPGTT, 0 to 120 min, 7.5 nmole/kg 16 hours before
Procedure: (§1) Two to three months old male ob/ob mice are individually housed in a temperature-controlled (24° C.) facility with a 12 hour light/dark cycle (lights on 2200 hours), and have free access to food and water. After at least 2 weeks of acclimation to the facility, 3-hours fasting blood glucose is measured by tail vein bleeding at 9 AM. Mice with blood glucose under 180 mg/dL are not used. Remaining animals are randomized to treatment groups (N=7/group), each group having similar average blood glucose level. The mice are given access to food until the time of injection. […] Food is removed at the time of injection. An OGTT (Table 7) or IPGTT (Table 8) is performed 16 hours after the peptide injection. At time 0, animals are given 2 g/kg dextrose by oral gavage (Table 7) or intraperitoneal injection (Table 8). Blood is collected by tail vein bleeding at 0, 15, 30, 60 and 120 minutes after glucose challenge. Blood glucose concentration is measured by glucometer.

[2] = Food intake, body weight and body composition in diet-induced obese (DIO) mice; conditions: for reduction of cumulative food intake compared to the vehicle group: end of 2-week study; for Fat mass loss (g fat weight change for 14 days) / Overall weight loss (g weight change for 14 days) / Total food intake (g total for 14 days): mean ± SEM
Procedure: Three to four months old male diet-induced obese (DIO) mice are individually housed in a temperature-controlled (24° C.) facility with a 12 hour light/dark cycle (lights on 22:00), and have free access to food and water. After 2 weeks acclimation to the facility, mice are randomized to treatment groups (n=8-10/group), each group having similar mean body weight and fat mass. Mice are subcutaneously (sc) injected with vehicle solution and weighed for 2 days to acclimate them to the procedures.
Body weight and the weight of food plus the hopper are measured at the same time. Food consumed in the preceeding 24 hours is calculated by subtracting current weight of food plus the hopper from that of the previous day. Absolute changes in body weight are calculated by subtracting the body weight of the animal prior to the first injection. On days 1 and 14 total fat mass is measured by nuclear magnetic resonance (NMR) using an Echo Medical System (Houston, Tex.) instrument. Fat free mass is calculated by subtracting fat mass from total body weight.

[3] = Oral glucose tolerance test after 2-week treatment in DIO mice; conditions: for Glucose AUC, MEAN: oral glucose load 2 g/kg, 0 to 120 min
Procedure: (§2) Fifty-six hours after the fifth injection as described in Example 7 in DIO mice, mice are fasted for 16 hours prior to the start of the glucose tolerance test. At time 0, animals are given 2 g/kg dextrose by oral gavage (Table 3, Study 1) or intraperitoneal (IP) injection (Table 4, Study 2). Blood is collected by tail vein bleeding at 0, 15, 30, 60 and 120 minutes after glucose challenge. Glucose concentration is measured by glucometer.

[4] = Intraperitoneal glucose tolerance test in lean mice; conditions: IPGTT; for Glucose AUC, MEAN: 0 to 30 min; for Insulin AUC, MEAN: plasma insulin 0 to 30 min
Procedure: Nine week old male C57BL/6 mice are used in the study Animals are randomized into groups based on fed body weight. […] Food is removed at the time of injection of peptide or vehicle. At time 0, animals are given 2 g/kg dextrose by IP injection. Blood is collected by tail vein bleeding at 0, 3, 6, 12 and 30 minutes after glucose challenge. Glucose concentration is measured by glucometer. Insulin is measure by Mesoscale.

[5] = Intraperitoneal glucose tolerance test after 2-week treatment in DIO mice; conditions: ip glucose load 2 g/kg, 0 to 120 min
Procedure: as §2

[6] = Oral glucose tolerance test in ob/ob mice; conditions: for Glucose AUC, MEAN: OGTT, 0 to 120 min
Procedure: as §1

[7] = Study 1, DIO mice, 7.5 nmole/kg sc every 3 days
[8] = Study 1, DIO mice, 15 nmole/kg sc every 3 days
[9] = Study 1, DIO mice, 30 nmole/kg sc every 3 days
[10] = Study 2, DIO mice, 7.5 nmole/kg sc every 3 days
[11] = Study 2, DIO mice, 22.5 nmole/kg sc every 3 days

With “His-(D-Ser)-Gln-Gly-Thr-Phe-Thr-Ser-Asp-(1-Nal)-Ser-Lys-Tyr-Leu-Asp-Glu-Lys-Ala-Ala-Gln-Glu-Phe-Val-Gln-Trp-Leu-Leu-Asn-(Aib)-Ala-Arg-Asn-Arg-Asn-Asn-Ile-Ala-Cys(20 kDa PEG)-Cys(20 kDa PEG)” the “Glucose AUC, MEAN” value [1] was 16944* mg*min/dL, the “cumulative weight loss compared to the vehicle group” value ([2]; Study 1, 7.5 nmole/kg every 3 days, 2 weeks) was “about 6%” and the “vehicle controlled cumulative weight loss” value ([2]; Study 1, 15 nmole/kg every 3 days, 2 weeks) was 10%. For the same substance, the “reduction of cumulative food intake compared to the vehicle group” value ([2]; Study 1, 15 nmole/kg) was 21%, the “vehicle controlled cumulative weight loss” value ([2]; Study 1, 30 nmole/kg every 3 days, 2 weeks) was 15% and the “reduction of cumulative food intake compared to the vehicle group” value ([2]; Study 1, 30 nmole/kg) was 27%. For the same substance, the “Fat mass loss (g fat weight change for 14 days)” value [2, 7] was -1.1 ± 0.3 g, the “Overall weight loss (g weight change for 14 days)” value [2, 7] was -1.7 ± 0.3 g and the “Total food intake (g total for 14 days)” value [2, 7] was 36.5 ± 1.2 g. The “Fat mass loss (g fat weight change for 14 days)” value [2, 8] was -2.7 ± 0.2 g, the “Overall weight loss (g weight change for 14 days)” value [2, 8] was -3.5 ± 0.3 g and the “Total food intake (g total for 14 days)” value [2, 8] was 31.4 ± 0.9 g. For the same substance, the “Fat mass loss (g fat weight change for 14 days)” value [2, 9] was -4.0 ± 0.3 g, the “Overall weight loss (g weight change for 14 days)” value [2, 9] was -5.6 ± 0.4 g and the “Total food intake (g total for 14 days)” value [2, 9] was 29.0 ± 1.3 g. For the same substance, the “Fat mass loss (g fat weight change for 14 days)” value [2, 10] was -1.6 ± 0.2 g, the “Overall weight loss (g weight change for 14 days)” value [2, 10] was -2.5 ± 0.3 g and the “Total food intake (g total for 14 days)” value [2, 10] was 33.3 ± 0.6 g. For the same substance, the “Fat mass loss (g fat weight change for 14 days)” value [2, 11] was -3.8 ± 0.2 g, the “Overall weight loss (g weight change for 14 days)” value [2, 11] was -5.2 ± 0.2 g and the “Total food intake (g total for 14 days)” value [2, 11] was 28.7 ± 0.6 g. The “decrease of body weight” value ([2]; Study 2, high dose (22.5 nmole/kg) every 3 days, 2 weeks) was roughly 10%, the “decrease of body weight” value ([2]; Study 2, low dose (7.5 nmole/kg) every 3 days, 2 weeks) was “about 5%” and the “blood glucose at all time points before and after the oral glucose challenge vs vehicle” value ([3]; all doses) was “significantly lowered”. For the same substance, the “Glucose AUC, MEAN” value ([3]; 7.5 nmole/kg) was 13802* mg*min/dL, the “Glucose AUC, MEAN” value ([3]; 15 nmole/kg) was 12668* mg*min/dL and the “Glucose AUC, MEAN” value ([3]; 30 nmole/kg) was 13056* mg*min/dL. For the same substance, the “Glucose AUC, MEAN” value ([4]; 5 nmole/kg 16 hours before) was 6287* mg*min/dL, the “Glucose AUC, MEAN” value ([4]; 15 nmole/kg 16 hours before) was 6881* mg*min/dL and the “Insulin AUC, MEAN” value ([4]; 5 nmole/kg) was 33.29* ng*min/mL. The “Insulin AUC, MEAN” value ([4]; 15 nmole/kg) was 58.32* ng*min/mL, the “Glucose AUC, MEAN” value ([5]; 7.5 nmole/kg) was 19198* mg*min/dL and the “Glucose AUC, MEAN” value ([5]; 22.5 nmole/kg) was 15720* mg*min/dL. For the same substance, the “Glucose AUC, MEAN” value ([6]; 7.5 nmole/kg 16 hours before) was 12103* mg*min/dL, the “Glucose AUC, MEAN” value ([6]; 15 nmole/kg 16 hours before) was 14837* mg*min/dL and the “blood glucose in ob/ob mice” value ([6]; single injection) was “normalized blood glucose”.
